Patent US20040253665A1, “Novel peptide-producing enzyme, microbe producing the enzyme and method for dipeptide synthesis using them” (AJINOMOTO CO., INC., priority 2002, published 2004)
Marks after values point to notes of the source that are not given here. Non-standard residues stand in square brackets, D forms with d. Residues, ends and D or L forms follow the SMILES beside them. No end group written: not given here. *: point of attachment. Tle = CC(C)(C)[C@H](N)C(=O)O; NMeA = CN[C@@H](C)C(=O)O; Boc = CC(C)(C)OC(=O)*; Aib = CC(C)(N)C(=O)O; OtBu = CC(C)(C)O*; tBu = CC(C)(C)*

system: peptide-producing enzyme (Mono S fraction) from Empedobacter brevis strain FERM BP-8113; test: Enzyme substrate specificity (1)-(10), (13), (14); format: biochemical; settings: L or D amino acid methyl ester hydrochloride 100 mM, L or D amino acid 150 mM, pH 9.0, 25° C., 3 hours
Excerpt: Ester specificity was examined in the case of using L-amino acid ester for the carboxy component. […] The amounts of L-Ala-L-Gln produced in this reaction are shown in Table 4 (HCl represents hydrochloride in Table 4). Peptide production was examined in the case of using L-alanine methyl ester for the carboxy component and using various L-amino acids for the amine component. […] (The “+” mark indicates those peptides for which production was confirmed but which were unable to be quantified due to the absence of a standard, while “tr” indicates a trace amount.) Peptide production was examined in the case of using various types of L-amino acid methyl esters for the carboxy component and using L-glutamine for the amine component. […] Peptide production was examined in the case of using various L-amino acid methyl esters for the carboxy component and various L-amino acids for the amine component. […] (The “tr” indicates a trace amount.) Furthermore, Tween-80 was added to the reaction system to a final concentration of 0.1% in the case of using L-Trp-OMe. (The “+” mark indicates those peptides for which production was confirmed but which were unable to be quantified due to the absence of a standard.) […] (The “tr” indicates a trace amount.) Peptide production was examined using various L-amino acid amides for the carboxy component, and various L-amino acids for the amine component. […] Peptide production was examined in the case of using various L-alanine methyl esters for the carboxy component and C-protected L-amino acids for the amine component. […] Peptide production was examined in the case of using various amino acid methyl esters for the carboxy component and methylamine for the amine component. […] Peptide production was examined in the case of using β-amino acid ester for the carboxy component or β-amino acid for the amine component. […] (The “tr” indicates a trace amount.) Oligopeptide production was examined in the case of using L-amino acid ester for the carboxy component and peptide for the amine component. […] Substrate specificity was additionally assessed using the same enzyme fraction as that used in Example 5. […] (A “+” mark indicates those for which production was confirmed but which were unable to be quantified due to the absence of a standard, while “tr” indicates a trace amount). Substrate specificity with respect to oligopeptide production was assessed using the same enzyme fraction as Example 26. […] (A “+” mark indicates those for which production was confirmed but which were unable to be quantified due to the absence of a standard, while “tr” indicates a trace amount). It should be noted that hydrochlorides were used for all of the carboxy components.

| Compound | Produced peptide |
| --- | --- |
| C[C@@H](N)C(=O)N[C@@H](CCC(N)=O)C(=O)O [D-Ala-L-Gln] (H-[dA]-Gln-OH) | 69.3 mM |
| CSCC[C@@H](N)C(=O)N[C@H](CO)C(=O)O [D-Met-D-Ser] (H-[dM]-[dS]-OH) | 2.7 mM |
| CSCC[C@@H](N)C(=O)N[C@@H](CO)C(=O)O [D-Met-L-Ser] (H-[dM]-Ser-OH) | 5.1 mM |
| N[C@H](CO)C(=O)N[C@H](CO)C(=O)O [D-Ser-D-Ser] (H-[dS]-[dS]-OH) | 2.5 mM |
| N[C@H](CO)C(=O)N[C@@H](CO)C(=O)O [D-Ser-L-Ser] (H-[dS]-Ser-OH) | 3.3 mM |
| C[C@H](O)[C@@H](N)C(=O)N[C@H](CO)C(=O)O [D-Thr-D-Ser] (H-[dT]-[dS]-OH) | 1.1 mM |
| C[C@H](O)[C@@H](N)C(=O)N[C@@H](CO)C(=O)O [D-Thr-L-Ser] (H-[dT]-Ser-OH) | 1.0 mM |
| CC(C)[C@@H](N)C(=O)N[C@H](CO)C(=O)O [D-Val-D-Ser] (H-[dV]-[dS]-OH) | 0.5 mM |
| CC(C)[C@@H](N)C(=O)N[C@@H](CO)C(=O)O [D-Val-L-Ser] (H-[dV]-Ser-OH) | 0.6 mM |
| C[C@H](N)C(=O)N[C@H](CCC(N)=O)C(=O)O [L-Ala-D-Gln] (H-Ala-[dQ]-OH) | 0.3 mM |
| CSCC[C@H](N)C(=O)N[C@H](CO)C(=O)O [L-Met-D-Ser] (H-Met-[dS]-OH) | 1.9 mM |
| N[C@@H](CO)C(=O)N[C@H](CO)C(=O)O [L-Ser-D-Ser] (H-Ser-[dS]-OH) | 16.2 mM |
| C[C@@H](O)[C@H](N)C(=O)N[C@H](CO)C(=O)O [L-Thr-D-Ser] (H-Thr-[dS]-OH) | 6.9 mM |
| CC(C)[C@H](N)C(=O)N[C@H](CO)C(=O)O [L-Val-D-Ser] (H-Val-[dS]-OH) | 1.4 mM |

same assay, conditions: L-amino acid amide hydrochloride 100 mM as carboxy component, L-amino acid 150 mM, pH 9.0, 25° C., 3 hours

| Compound | Produced peptide |
| --- | --- |
| N[C@@H](Cc1ccccc1)C(=O)N[C@@H](CO)C(=O)O [L-Phe-L-Ser] (H-Phe-Ser-OH) | 0.6 mM |

same assay, conditions: L-amino acid ester 100 mM, amino acid or peptide amine component 150 mM, pH 9.0, 25° C., 3 hours

| Compound | Produced peptide |
| --- | --- |
| Gly-Gly-L-Gln | 7.2 mM |
| Gly-Gly-L-Tyr-L-Ala | 44.2 mM |

same assay, conditions: L-amino acid methyl ester hydrochloride 100 mM, L-amino acid 150 mM, pH 9.0, 25° C., 3 hours

| Compound | Produced peptide |
| --- | --- |
| NCC(=O)N[C@@H](CS)C(=O)O [Gly-L-CySH] (H-Gly-Cys-OH) | 45.6 mM |
| CSCC[C@H](NC(=O)[C@@H](N)Cc1cnc[nH]1)C(=O)O [L-His-L-Met] (H-His-Met-OH) | 6.5 mM |
| CSCC[C@H](NC(=O)[C@@H](N)CC(C)C)C(=O)O [L-Leu-L-Met] (H-Leu-Met-OH) | 12.2 mM |
| CSCC[C@H](NC(=O)[C@@H](N)CCCCN)C(=O)O [L-Lys-L-Met] | 6.8 mM |
| C[C@@H](O)[C@H](N)C(=O)N[C@@H](CO)C(=O)O [L-Thr-L-Ser] (H-Thr-Ser-OH) | 58.2 mM |
| CSCC[C@H](NC(=O)[C@@H](N)Cc1c[nH]c2ccccc12)C(=O)O [L-Trp-L-Met] (H-Trp-Met-OH) | 4.1 mM |
| NC(=O)C[C@H](N)C(=O)N[C@@H](CCC(=O)O)C(=O)O [LAsn-L-Glu] (H-Asn-Glu-OH) | 10.2 mM |

same assay, conditions: carboxy component 10 mM, amine component 15 mM, pH 9.0, 25° C., 3 hours

| Compound | Produced peptide (mM) |
| --- | --- |
| L-Ala-L-Ala-L-Ala-L-Ala-L-Ala-L-Ala | 1.4* mM |

same assay, conditions: carboxy component 40 mM, amine component 40 mM, 0.1 unit enzyme, 25° C., reaction time 3 hr

| Compound | Produced peptide |
| --- | --- |
| C[C@H](N)C(=O)N[C@@H](Cc1ccc(Cl)cc1)C(=O)O [H-Ala-Cl-F-Phe-OH] | 20.8 mM |
| C[C@H](N)C(=O)N[C@@H](Cc1ccc([N+](=O)[O-])cc1)C(=O)O [H-Ala-p-NO2-Phe-OH] | 27.5 mM |
| NC(=O)CC[C@H](NC(=O)[C@@H](N)Cc1ccc([N+](=O)[O-])cc1)C(=O)O [H-p-NO2-Phe-H-Gln-OH] | 1.1 mM |

same assay, conditions: carboxy component 50 mM, amine component 50 mM, 0.1 unit enzyme, 25° C., reaction time 3 hr

| Compound | Produced peptide |
| --- | --- |
| C[C@H](N)C(=O)N[C@@H](Cc1ccc(F)cc1)C(=O)O [H-Ala-p-F-Phe-OH] | 21.9 mM |

same assay, conditions: carboxy component 100 mM, amine component 150 mM, 0.1 unit enzyme, 25° C., reaction time 2 hr

| Compound | Produced peptide |
| --- | --- |
| C[C@H](N)C(=O)N[C@@H](CC(=O)OC(C)(C)C)C(=O)O [H-Ala-Asp(OtBu)-OH] (H-Ala-Asp(OtBu)-OH) | 62.6 mM |
| C[C@H](N)C(=O)N[C@@H](CCCCNC(=O)OC(C)(C)C)C(=O)O [H-Ala-Lys(Boc)-OH] (H-Ala-Lys(Boc)-OH) | 51.0 mM |
| C[C@H](N)C(=O)N[C@@H](COC(C)(C)C)C(=O)O [H-Ala-Ser(tBu)-OH] (H-Ala-Ser(tBu)-OH) | 48.8 mM |
| CC(C)(C)OC(=O)C[C@H](N)C(=O)N[C@@H](CCC(N)=O)C(=O)O [H-Asp (OtBu)-Gln-OH] (H-Asp(OtBu)-Gln-OH) | 0.9 mM |

same assay, conditions: carboxy component 100 mM, amine component 150 mM, 0.1 unit enzyme, 25° C., reaction time 3 hr

| Compound | Produced peptide |
| --- | --- |
| CC(C)(N)C(=O)N[C@@H](CCC(N)=O)C(=O)O [H-Aib-H-Gln-OH] (H-[Aib]-Gln-OH) | 18.8 mM |
| CC(C)(N)C(=O)N[C@@H](Cc1ccccc1)C(=O)O [H-Aib-Phe-OH] (H-[Aib]-Phe-OH) | 17.2 mM |
| C[C@H](N)C(=O)N[C@H](C(=O)O)C(C)(C)C [H-Ala-t-Leu-OH] (H-Ala-[Tle]-OH) | 0.4 mM |
| CN[C@@H](C)C(=O)N[C@@H](CCC(N)=O)C(=O)O [H-N-Me-Ala-H-Gln-OH] (H-[NMeA]-Gln-OH) | 0.5 mM |

same assay, conditions: carboxy component (label) 100 mM, 200 mM L-glutamine, pH 9.0, 25° C., 2 hours

| Compound | L-Ala-L-Gln produced |
| --- | --- |
| CCOC(=O)[C@H](C)N.Cl [L-Alanine ethyl ester.HCl] | 91.5 mM |
| CC(C)OC(=O)[C@H](C)N.Cl [L-Alanine isopropyl ester.HCl] | 78.9 mM |
| COC(=O)[C@H](C)N.Cl [L-Alanine methyl ester.HCl, L-alanine methyl ester hydrochloride] | 84.3 mM |
| C[C@H](N)C(=O)OC(C)(C)C.Cl [L-Alanine-t-butyl ester.HCl] | 7.5 mM |

same assay, conditions: oligopeptide production, amount of enzyme 0.1 units, pH 9.0, 25° C., 3 hours

| Compound | Produced peptide (mM) |
| --- | --- |
| [dA]-Gly-Phe | Tr |

same assay, conditions: oligopeptide production, amount of enzyme 1.0 units, pH 9.0, 25° C., 3 hours

| Compound | Produced peptide |
| --- | --- |
| Gly-Phe-Met | 13.3 mM |
| L-Tyr-Gly-Gly-L-Phe-L-Met | 2.7 mM |

same assay, conditions: β-amino acid ester as carboxy component or β-amino acid as amine component; 100 mM / 150 mM, pH 9.0, 25° C., 3 hours

| Compound | Produced peptide |
| --- | --- |
| CC(N)C(=O)NCCC(=O)O (stereo not drawn) [Ala-β-Ala] | 7.7 mM |
| CC(N)C(=O)NC(CC(=O)O)c1ccccc1 (stereo not drawn) [Ala-β-Phe] | 1.4 mM |
| NCC(=O)NCCC(=O)O [Gly-β-Ala] | 2.2 mM |
| NCC(=O)NC(CC(=O)O)c1ccccc1 (stereo not drawn) [Gly-β-Phe] | 0.4 mM |
| C[C@@H](O)[C@H](N)C(=O)NCCC(=O)O [Thr-β-Ala] | 3.2 mM |
| C[C@@H](O)[C@H](N)C(=O)NC(CC(=O)O)c1ccccc1 (stereo partly drawn) [Thr-β-Phe] | 1.4 mM |
| NCCC(=O)N[C@@H](CCC(N)=O)C(=O)O [β-Ala-L-Gln] | 0.6 mM |
| NCCC(=O)NC(CO)C(=O)O [β-Ala-L-Ser] | 3.2 mM |
| NCCC(=O)NCCC(=O)O [β-Ala-β-Ala] | 0.2 mM |
